The values below come from ChEMBL document CHEMBL1129058, “Indole inhibitors of human nonpancreatic secretory phospholipase A2. 2. Indole-3-acetamides with additional functionality” (J Med Chem, 1996).

Values joined by “and” are separate entries in the source; they are usually repeats but may differ in a detail not shown here. Identical values can stand only once.

Test [1] concerns the target T1, Phospholipase A2, membrane associated (Homo sapiens, UniProt P14555).
T1 sequence (P14555 whole entry): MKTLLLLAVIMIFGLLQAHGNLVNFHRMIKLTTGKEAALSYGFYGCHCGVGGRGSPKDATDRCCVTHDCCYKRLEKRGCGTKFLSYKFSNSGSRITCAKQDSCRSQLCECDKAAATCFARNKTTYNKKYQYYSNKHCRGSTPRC
The test can be described thus: Inhibition of human non-pancreatic secretory phospholipase A2 (PLA2) in a chromogenic assay.

The species named for another test is Cavia porcellus. The test can be described thus: Effective dose of compound against contraction of Guinea pig lung tissue with arachidonic acid. The format is functional.
The target in test [2] is T2, Phospholipase A2, membrane associated (Homo sapiens) (UniProt P14555).
T2 sequence (whole entry): T1 sequence (P14555 whole entry)
The test can be described thus: Inhibitory activity against contraction of Guinea pig lung tissue induced by PLA2. The format is functional, tissue-based. As to conditions: Cavia porcellus, target entry is the homologue from another species.

Compound `NC(=O)Cc1c(Br)n(Cc2ccccc2)c2ccc(OCCCP(=O)(O)O)cc12` [listing 1 of 3 here] yielded an IC50 in test [1] of 165 nM.
As for `Cc1c(CC(N)=O)c2c(OCC(=O)O)cccc2n1Cc1ccccc1`, in the test filed under Cavia porcellus, the ED50 is over 10000 nM.
In test [2], `Cc1c(CC(N)=O)c2cc(CCCC(=O)O)ccc2n1Cc1ccccc1` returned a Kb of 332 nM. This compound returned an IC50 in test [1] of 155 nM.
For the compound `CCc1c(CC(N)=O)c2cc(OCCCP(=O)(O)O)ccc2n1Cc1ccccc1`, the ED50 in the test listed under Cavia porcellus was over 10000 nM.
As for `Cc1c(CC(=O)NN)c2cc(OCCCP(=O)([O-])[O-])ccc2n1Cc1ccccc1.[Na+].[Na+]`, the Kb in test [2] was found to be 1070 nM. The compound further came in with an IC50 in test [1] of 462 nM. Moreover, in the test filed under Cavia porcellus, the ED50 is over 10000 nM.
Consider `NC(=O)Cc1cn(Cc2ccccc2)c2cccc(OCC(=O)O)c12`, for which, in test [1], the midpoint of inhibition, the IC50, lay at 321 nM.
Same read-out and setting: the result for `CCc1c(CC(N)=O)c2cc(SCCCP(=O)(O)O)ccc2n1Cc1ccccc1` reads 58 nM.
As for `Cc1c(CC(N)=O)c2c(OCC(=O)O)cccc2n1Cc1ccccc1-c1ccccc1`, the Kb in test [2] stood at 140 nM.
In turn, `CCc1c(CC(N)=O)c2cc(OCCCS(=O)(=O)O)ccc2n1Cc1ccccc1` showed an ED50 in the test filed under Cavia porcellus of over 10000 nM.
Take `CSc1c(CC(N)=O)c2cc(OCCCC(=O)O)ccc2n1Cc1ccccc1`: the Kb in test [2] turned out to be 630 nM. The compound further had an IC50 in test [1] of 162 nM. The compound further returned an ED50 in the test listed under Cavia porcellus of over 10000 nM.
On to `NC(=O)Cc1c(Br)n(Cc2ccccc2)c2ccc(OCCCP(=O)(O)O)cc12` [listing 2 of 3 here], for which the midpoint of inhibition in test [1], the IC50, lay at 33 nM. In the test listed under Cavia porcellus, this compound gave an ED50 of over 10000 nM.
With `CCc1c(CC(N)=O)c2cc(SCCCC(=O)O)ccc2n1Cc1ccccc1`, in test [2], the Kb was determined as 124 nM. The compound also gave an IC50 in test [1] of 23 nM.
`Cc1cc(OCCCC(=O)O)cc2c(CC(N)=O)c(C)n(Cc3ccccc3)c12`: the half-inhibitory concentration (IC50) in test [1] was 75 nM.
On the same count and under the same terms, the same measure for `Cc1c(CC(N)=O)c2cc(NCCC(=O)O)ccc2n1Cc1ccccc1`: 3370 nM; for `Cc1c(CC(N)=O)c2ccc(OCCCC(N)=O)cc2n1Cc1ccccc1`: 5830 nM.
For `Cc1c(CC(=O)NN)c2cc(OCCCC(=O)O)ccc2n1Cc1ccccc1`, in test [2], the Kb amounted to 2170 nM. Besides, the IC50 in test [1] was 1020 nM. In the test filed under Cavia porcellus, this compound returned an ED50 of over 30000 nM.
The matching figures for `CCc1c(CC(N)=O)c2cc(OCCCP(=O)(O)OC)ccc2n1Cc1ccccc1`: 340 nM, 40 nM and over 10000 nM.
With `Cc1c(CC(N)=O)c2cc(OCCCP(=O)(O)O)ccc2n1Cc1ccccc1`, the ED50 in the test filed under Cavia porcellus was over 10000 nM.
In test [1], `NC(=O)Cc1cn(Cc2ccccc2)c2ccc(OCP(=O)(O)O)cc12` came in with an IC50 of 3680 nM.
Same read-out and setting: the result for `CCc1c(CC(N)=O)c2cc(SCCC(=O)O)ccc2n1Cc1ccccc1` reads 59 nM.
`CCc1c(CC(N)=O)c2cc(OCCCP(=O)(O)O)c(C(C)C)cc2n1Cc1ccccc1` had a Kb in test [2] of 698 nM. In addition, the IC50 in test [1] is 40 nM.
The compound `CCc1c(CC(N)=O)c2c(OCC(=O)O)cccc2n1Cc1ccccc1` gave an ED50 in the test listed under Cavia porcellus of over 3000 nM.
In test [1], `Cc1cc(SCCCC(=O)O)cc2c(CC(N)=O)c(C)n(Cc3ccccc3)c12` gave an IC50 of 51 nM.
In test [2], `Cc1c(CC(N)=O)c2c(OCC(=O)NN)cccc2n1Cc1ccccc1` had a Kb of 1950 nM. In addition, the IC50 in test [1] was 422 nM.
In test [2], `CCc1c(CC(N)=O)c2cc(OCCCP(=O)(O)O)ccc2n1Cc1cccc(Cl)c1` showed a Kb of 240 nM.
Take `Cc1c(CC(N)=O)c2c(OCC(=O)O)cccc2n1Cc1cccc(Cl)c1`: the Kb in test [2] stood at 190 nM. In test [1], the IC50 was 52 nM.
As to `CCc1c(CC(N)=O)c2cc(SCCCC(=O)O)c(C(C)C)cc2n1Cc1ccccc1`, in test [1], it took 33 nM to reach half-maximal inhibition (IC50).
`NC(=O)Cc1c(Cl)n(Cc2ccccc2)c2ccc(OCCCC(=O)O)cc12`: in test [2], the Kb came to 610 nM. In addition, in test [1], half-maximal inhibition (IC50) was put at 77 nM. Also, the ED50 in the test listed under Cavia porcellus is over 30000 nM.
For `C=CCc1c(O)ccc2c1c(CC(N)=O)c(CC)n2Cc1ccccc1`, the IC50 in test [1] stood at 143 nM.
In test [2], `NC(=O)Cc1c(Br)n(Cc2ccccc2)c2ccc(OCCCC(=O)O)cc12` yielded a Kb of 530 nM. This compound also gave an IC50 in test [1] of 73 nM. The ED50 in the test listed under Cavia porcellus was over 10000 nM.
Compound `Cc1c(CC(N)=O)c2cc(OCc3ccccc3C(=O)O)ccc2n1Cc1ccccc1` registered a Kb in test [2] of 720 nM. The compound further showed an IC50 in test [1] of 147 nM. For the same compound, the ED50 in the test filed under Cavia porcellus is over 10000 nM.
`CCCc1c(CC(N)=O)c2cc(OCCCP(=O)(O)O)ccc2n1Cc1ccccc1`: the IC50 in test [1] is 6130 nM.
`NC(=O)Cc1c(C2CC2)n(Cc2ccccc2)c2ccc(OCCCP(=O)(O)O)cc12` had a Kb in test [2] of 900 nM. For the same compound, in test [1], the IC50 worked out at 74 nM.
Regarding `Cc1c(CC(N)=O)c2c(O)cccc2n1Cc1ccccc1`, the midpoint of inhibition in test [1], the IC50, lay at 8280 nM.
With `Cc1c(CC(N)=O)c2c(OCP(=O)(O)O)cccc2n1Cc1ccccc1`, the ED50 in the test filed under Cavia porcellus was over 10000 nM.
Regarding `NC(=O)Cc1cn(Cc2ccccc2)c2ccc(OCCCC(=O)O)cc12`, in test [1], half-maximal inhibition (IC50) required 180 nM.
Compound `CCc1c(CC(N)=O)c2cc(OCCCC(=O)O)ccc2n1Cc1ccccc1` gave an ED50 in the test filed under Cavia porcellus of over 10000 nM.
`NC(=O)Cc1c(C2CC2)n(Cc2ccccc2)c2ccc(OCCCC(=O)O)cc12` had an IC50 in test [1] of 44 nM.
In turn, `Cc1c(CC(N)=O)c2cc(O)ccc2n1Cc1ccccc1` had an IC50 in test [1] of 1020 nM. Compared with the last compound, the IC50 is about 23-fold higher.
In the case of `NC(=O)Cc1c(Br)n(Cc2ccccc2)c2ccc(OCCCP(=O)(O)O)cc12` [listing 3 of 3 here], in test [2], the Kb is 440 nM and 1550 nM.
In the test filed under Cavia porcellus, `Cc1c(CC(N)=O)c2cc(OCCCC(=O)O)ccc2n1Cc1ccccc1` showed an ED50 of over 30000 nM.
In turn, `Cc1c(CC(N)=O)c2cc(Oc3cccc(C(=O)O)c3)ccc2n1Cc1ccccc1` yielded an IC50 in test [1] of over 110000 nM.
On the same count and under the same terms, the same measure for `CCc1c(CC(N)=O)c2cc(OCCCP(=O)(OC)OC)ccc2n1Cc1ccccc1`: 266 nM; for `COC(=O)COc1cccc2c1c(CC(N)=O)c(C)n2Cc1ccccc1`: 1380 nM.
`CCc1c(CC(N)=O)c2cc(OCCCC(=O)O)c(C)cc2n1Cc1ccccc1` yielded a Kb in test [2] of 206 nM. In test [1], this compound showed a half-maximal inhibitory concentration (IC50) of 33 nM.
Take `Cc1c(CC(=O)O)c2cc(OCCCC(=O)O)ccc2n1Cc1ccccc1`: in test [1], half-maximal inhibition (IC50) required 25900 nM. This lies in the double-digit micromolar range.
The compound `Cc1c(CC(N)=O)c2cc(OCCC(=O)O)ccc2n1Cc1ccccc1` had a Kb in test [2] of 3760 nM. For the same compound, the IC50 in test [1] is 527 nM. In the test filed under Cavia porcellus, this compound displayed an ED50 of over 30000 nM.
In turn, `Cc1c(CC(N)=O)c2cc(NCCCC(=O)O)ccc2n1Cc1ccccc1` displayed an IC50 in test [1] of 1830 nM.
On the same count and under the same terms, the same measure for `CCc1c(CC(N)=O)c2cc(SCCCC(=O)O)c(C)cc2n1Cc1ccccc1`: 22 nM; for `Cc1c(CC(N)=O)c2cc(OCCCC3=NNNN3)ccc2n1Cc1ccccc1`: 2450 nM.
On the same count and under the same terms, the same measure for `CCCc1c(CC(N)=O)c2cc(O)ccc2n1Cc1ccccc1`: 34000 nM.
On the same count and under the same terms, the same measure for `Cc1c(CC(N)=O)c2ccc(OCCCC(=O)NN)cc2n1Cc1ccccc1`: 1270 nM; for `Cc1c(CC(N)=O)c2c(O)cccc2n1Cc1cccc(Cl)c1`: 5880 nM; for `CSc1c(CC(N)=O)c2cc(OCCCC(N)=O)ccc2n1Cc1ccccc1`: 93 nM.
`NC(=O)Cc1c(Br)n(Cc2ccccc2)c2cc(Cl)c(O)cc12` showed an IC50 in test [1] of 85 nM.
`NC(=O)Cc1cn(Cc2ccccc2)c2ccc(OCCCP(=O)(O)O)cc12` registered an IC50 in test [1] of 203 nM. This IC50 is about 2.4-fold higher than that of the compound before.
Compound `Cc1c(CC(N)=O)c2cc(OCC(=O)O)ccc2n1Cc1ccccc1` gave a Kb in test [2] of 8220 nM. In addition, in test [1], the IC50 came to 1790 nM. Moreover, the ED50 in the test filed under Cavia porcellus is over 30000 nM.
Compound `CCc1c(CC(N)=O)c2cc(OCc3ccccc3C(=O)O)ccc2n1Cc1ccccc1` displayed an IC50 in test [1] of 555 nM.
Turning to `CCc1c(CC(N)=O)c2cc(OCCCP(=O)(O)O)c(C)cc2n1Cc1ccccc1`, the Kb in test [2] amounted to 202 nM. The same compound came in with an IC50 in test [1] of 15 nM.
In test [2], `Cc1c(CC(N)=O)c2cc(OCCCCC(=O)O)ccc2n1Cc1ccccc1` had a Kb of 8800 nM. Besides, the IC50 in test [1] was determined as 1150 nM. This compound came in with an ED50 in the test filed under Cavia porcellus of over 30000 nM.
Turning to `Cc1c(CCC(N)=O)c2cc(OCCCC(=O)O)ccc2n1Cc1ccccc1`, the IC50 in test [1] is 6930 nM.
`Cc1c(CC(N)=O)c2cc(OCCCP(=O)(O)O)ccc2n1Cc1ccccc1-c1ccccc1`: the ED50 in the test filed under Cavia porcellus was over 10000 nM.
`CCc1c(C(N)=O)c2c(OCC(=O)O)cccc2n1Cc1cccc(Cl)c1`: the IC50 in test [1] came out at 16800 nM.
In turn, `CCOC(=O)CCCCOc1ccc2c(CC(N)=O)c(C)n(Cc3ccccc3)c2c1` showed a Kb in test [2] of 22500 nM. For the same compound, the IC50 in test [1] is 306 nM. In the test listed under Cavia porcellus, this compound displayed an ED50 of over 30000 nM.
Take `NC(=O)Cc1c(Br)n(Cc2ccccc2)c2cc(Cl)c(OCCCC(=O)O)cc12`: the ED50 in the test filed under Cavia porcellus is over 10000 nM.

For orientation: IC50 means the concentration that gives 50% inhibition. A higher IC50 goes with lower potency.
